Assay results as given in US20050002991A1, “Prophylactic agent of hypertension containing a conjugated fatty acid as an effective ingredient and the use thereof” (RINORU OIL MILLS CO., LTD., priority 2003, published 2005).
Marks after values point to notes of the source that are not given here.

Test system: OLETF rats
Assay: Systolic blood pressure of OLETF rats fed CLA-supplemented diet (indirect tail cuff method)
Format: in vivo, rat
Conditions: male OLETF rats; for Blood pressure, initial value / Blood pressure, 1 Week / Blood pressure, 2 Weeks / Blood pressure, 3 Weeks: systolic; for Blood pressure, initial value: baseline before feeding the diet supplemented with 0.5% of the substance; for Blood pressure, 1 Week / Blood pressure, 2 Weeks / Blood pressure, 3 Weeks: diet supplemented with 0.5% of the substance; for Blood pressure, 1 Week: 1 week of feeding; for Blood pressure, 2 Weeks: 2 weeks of feeding; for Blood pressure, 3 Weeks: 3 weeks of feeding; for Systolic blood pressure compared with control group (in words): 0.5% in diet, up to 3 weeks, control = high linoleic safflower oil
Source text: Male OLETF rats (7 weeks old), an animal model of non-insulin dependent diabetes mellitus, were assigned to three groups that were fed ad libitum with a semisynthetic diet (AIN-76) supplemented with 0.5% high linoleic safflower oil (Rinoru Oil Mills Co., Ltd.; control group), or a semisynthetic diet supplemented with 0.5% 9cis,11trans-CLA, and a semisynthetic diet supplemented with 0.5% 10trans,12cis-CLA for three weeks. […]
It has been found from the above-described results that systolic blood pressure is lowered in rats fed with the 10trans, 12cis-CLA.

Row | Compound | Blood pressure, initial value [mmHg] | Blood pressure, 1 Week [mmHg] | Blood pressure, 2 Weeks | Blood pressure, 3 Weeks | Systolic blood pressure compared with control group (in words) | Systolic blood pressure compared with control group (in words) (listed as 10trans,12cis-CLA)
1 | CCCCCC/C=C/C=C\CCCCCCCC(=O)O [9cis, 11trans-CLA, 9cis,11trans-CLA] | 103 ± 3 | 131 ± 3 | 148 ± 4^a mmHg | 154 ± 4^a mmHg | – | –
2 | conjugated linoleic acid [CLA] | – | – | – | – | tends to lower | –
3 | CCCCC/C=C\C=C\CCCCCCCCC(=O)O [10trans, 12cis-CLA, 10trans,12cis-CLA] | 106 ± 4 | 125 ± 6 | 128 ± 5^b mmHg | 132 ± 3^b mmHg | lowered | significantly suppressed
